What all share (type): binding, guinea pig
For test [1], the system named is anti-MG-Ins IgG. Description: Fluorescence spectrum of auramine O bound to the anti-MG-Ins IgG. The note with it: IgG 1 μM, AO 1 μM, PBS pH 7.2, 25° C., excitation 400 nm; FIG. 14. Here is the method:
The fluorescence spectrum of AO when AO is bound to the anti-MG-Ins IgG by an antigen-antibody reaction was measured as follows. The anti-MG-Ins IgG and AO were mixed so that the respective concentrations will be 1 μM and 1 μM (using phosphate buffered saline (pH 7.2, PBS) as the solvent). An antigen-antibody reaction was made to proceed by stirring for five minutes at 25° C. Then using the fluorescence spectrophotometer, the fluorescence spectrum emitted from the above-described mixed solution was measured under the conditions of an excitation wavelength of 400 nm, fluorescence wavelength of 450 to 650 nm, and bandpass width being set to 5 nm at both the excitation and fluorescence sides.

Test [2] deals with anti-MG-Ins Fab. Description: Fluorescence spectrum of malachite green bound to the anti-MG-Ins Fab. The note with it: Fab 0.955 μM, MG 0.907 μM, PBS pH 7.2, 25° C., excitation 620 nm; FIG. 11.
Description: The fluorescence spectrum of MG when MG is bound to the anti-MG-Ins Fab by an antigen-antibody reaction was measured as follows. The anti-MG-Ins Fab and MG were mixed so that the respective concentrations will be 0.955 μM and 0.907 μM (using phosphate buffered saline (pH 7.2, PBS) as the solvent). Then, an antigen-antibody reaction was made to proceed by stirring for five minutes at 25° C. Then using the fluorescence spectrophotometer, the fluorescence spectrum emitted from the above-described mixed solution was measured under the conditions of an excitation wavelength of 620 nm, fluorescence wavelength of 630 to 750 nm, and bandpass width being set to 5 nm at both the excitation and fluorescence sides.
Fluorescence spectra were also measured in the same manner as the above for various MG concentrations in the range of 0 to 0.9 μM with the anti-MG-Ins Fab concentration being set at 1 μM.
The subject of test [3] is anti-MG-Ins Fab. Description: Calibration curve: insulin concentration vs AO fluorescence intensity with anti-MG-Ins Fab and auramine O. The conditions noted are these: 2 μM anti-MG-Ins Fab, 0.4 μM AO, excitation 400 nm, fluorescence 520 nm; FIG. 15. Here is the method: A calibration curve was prepared for insulin concentrations in the range of 0 to 7.7 μM in the same manner as described above in [1-10-1] other than the changes of setting the anti-MG-Ins Fab concentration to 2 μM, using 0.4 μM of auramine O in place of 0.4 μM of malachite green, setting the excitation wavelength to 400 nm, and setting the fluorescence wavelength to 520 nm.

Test [4] deals with anti-MG-Ins Fab. Description: Calibration curve: insulin concentration vs MG fluorescence intensity with anti-MG-Ins Fab and malachite green. The note with it: 1 μM anti-MG-Ins Fab, 0.4 μM MG, excitation 620 nm, fluorescence 650 nm; FIG. 13. Here is the method:
A calibration curve, indicating the relationship between the insulin concentration and fluorescence intensity for a fixed amount (1 μM) of the anti-MG-Ins Fab and a fixed amount (0.4 μM) of MG, was prepared as follows. Since the insulin used forms aggregate of a few molecules because of containing zinc, the insulin was dissolved in advance in PB containing SDS at a final concentration of 0.1% to dissociate the aggregate. The insulin solution thus obtained was thereafter run through a gel permeation column (Fast Desaliting Column HR 10/10, made by Pharnacia), equilibrated using PBS. The insulin solution from which SDS was thus removed was used in the following quantification. • (1) The fluorescence spectrophotometer was set to an excitation wavelength of 620 nm and a fluorescence wavelength of 650 nm and the temperature of the cell holder was maintained at a fixed temperature (25° C.). • (2) 2 ml (A=2 ml) of an antibody-dye solution, containing 1 μM (Y=1 μM) of the anti-MG-Ins Fab and 0.4 μM (Z=0.4 μM) of MG, were prepared (with phosphate buffered saline (pH 7.2, PBS) as the solvent) (S101). • (3) The antibody-dye solution thus obtained was placed in a standard fluorescence measurement cell. This cell was set in the fluorescence spectrophotometer. The solution in the cell was stirred for 30 seconds with a micro stirring bar. […]

Test [5] concerns anti-MG-Ins Fab. Description: Verification test concerning the reversibility of the antigen-antibody reactions (AO fluorescence). The procedure:
The following experiment was carried out in order to confirm that, when the free insulin concentration in the same sample is varied by repeating the addition of insulin and the addition of anti-porcine insulin IgG (referred to hereinafter as “anti-insulin IgG”) in a solution containing the anti-MG-Ins Fab and auramine O, the measurement values of this invention vary following the variation of the free insulin concentration, that is, the antigen-antibody reactions concerning this invention are reversible and enable analysis in real time. The measurement of fluorescence intensity was carried out under the same measurement conditions as described above in [2-2-1].
First, 2 ml of a PBS solution, containing 2 μM of the anti-MG-Ins Fab and 0.4 μM of auramine O, were prepared. The AO fluorescence intensity was measured upon placing the solution in a cell. The florescence intensity at this time was set to a relative value of 1.
Insulin was then added to the solution in the cell so that the insulin concentration will be 1.26 μM.
A fixed amount (0.135 μM) of the anti-insulin IgG was then added to this solution. […] The AO fluorescence intensity returned to the original value since the anti-insulin IgG and insulin became bonded and free insulin no longer existed in the solution.
When insulin was then added again to this solution so that the insulin concentration will be 2.39 μM.

In the case of `CN(C)c1ccc(C(=N)c2ccc(N(C)C)cc2)cc1` [auramine O], the “fluorescence upon binding with the anti-MG-Ins IgG” value in test [1] was “became fluorescent”.

As to `CN(C)c1ccc(C(=C2C=CC(=[N+](C)C)C=C2)c2ccccc2)cc1` [malachite green], the “fluorescence upon binding with the anti-MG-Ins Fab” value in test [2] is “became fluorescent”.

Consider insulin, for which the “change of auramine O fluorescence intensity with increase of insulin concentration” value in test [3] is given as “inhibition of fluorescence occurs”. For the same compound, the “change of malachite green fluorescence intensity with increase of insulin concentration” value in test [4] is “enhancement of fluorescence occurs”. Further, the “relative value of the AO fluorescence intensity” value in test [5] (insulin added again to 2.39 μM) is reported as “decreased again”; in test [5] (insulin added again to 3.37 μM) it was “decreased”; in test [5] (insulin added to 1.26 μM, 2 μM anti-MG-Ins Fab, 0.4 μM AO, start value 1), “approximately 0.97”.

The record behind these values is US8574925B2, “Fluorescence analysis method using fluorescent-activating antibodies” (Hamamatsu Photonics K.K., priority 2002, dated 2013).
